Assay results reported in a melting point compilation (Tetko et al.; mined from patent text by program, amines drawn as free bases though some values may be those of a salt).

melting point [°C] | SMILES
204 to 205 | CCN(CC)c1ccc2nc3c4ccc(Br)cc4c(=Nc4ccccn4)cc-3oc2c1
77 to 80 | Cc1ccc(Cl)c(N)c1C#N
178 to 180 | Nc1cnc(-c2cc(Cl)cc(Cl)c2Cl)c(N)n1
131 | Cc1ccc(Cn2c(NC3CCN(C)CC3)nc3cccnc32)o1
146 to 147 | COc1cccc(Cc2cc3cccc(-c4cccc(C(=O)NC5CCOCC5)c4)c3o2)c1
126 to 129 | CC(C)(C)c1cnc(CSc2cnc(NC(=O)Cc3ccc(OCCCC(=O)Nc4ccccn4)cc3)s2)o1
127 to 128 | O=S(=O)(c1ccccc1)n1ccc2c(CBr)cccc21
119 to 121 | CCN(O)C(=O)Cc1ccc2c(c1)C(=O)c1ccccc1CO2
> 230 | Cc1cc(C)c(C2C(=O)C(Cc3ccc(Cl)cc3)N(C)C2=O)c(C)c1 (centres undefined)
206 to 209 | CC(C)n1c(=O)nc(-c2ccc3c(c2)CCO3)c2cc3c(cc21)OCO3
60 to 62 | OCC12OC1CC(OCc1ccccc1)C2COCc1ccccc1 (centres undefined)
233 to 234 | O=C1C(=CCc2ccccc2)SC(=S)N1N=c1sc2ccccc2s1
51 to 53 | O=C(CCCOc1ccc(OCc2ccccc2)cc1)C(F)(F)F
159 to 162 | Cc1ccc(C2c3c(C)c(N4CCN(c5ccc(F)cc5)CC4)c(C)c(C)c3OC2(C)C)cc1 (centres undefined)
114 | C=CON=C(C(=O)OCC)c1csc(NC(c2ccccc2)(c2ccccc2)c2ccccc2)n1
144 to 147 | COc1cc2c(cc1Br)CCOC2c1ccc([N+](=O)[O-])cc1 (centres undefined)
168 to 169 | COc1ccc(-c2cc3cc(OC)c(OC)cc3c(C)n2)cc1OC
161 to 162 | COC(=O)c1ccc2occ(-c3cc(F)ccc3F)c2c1
148 to 150 | COc1ccc(-n2nnc(-c3ccc(Cl)cc3F)c2N)cc1
56 to 60 | CN(C)C=Nc1c(F)ccc(F)c1C#N
127 to 128 | COc1ccc(OCC(O)CNC(C)(C)C)c(C2=NNC(=O)CC2)c1 (centres undefined)
66 to 68 | CC(C)(C)OC(=O)N1CCN(C(=O)C(F)(F)F)CC1
189 to 192 | CCCN(CCC)CCc1cccc2[nH]c(=O)[nH]c12
96 to 98 | CCOC(=O)CNC(=O)c1ncc(O)cc1O

melting point [°C] | SMILES
70 to 71 | CC(NC(=O)[C@@H](N)C(C)C)c1cc2ccccc2s1 (some centres undefined)
166 to 169 | CC(=O)NCc1ccc(C(C)(C)C(=O)O)cc1
211 to 216 | CN1CCC(C2(O)c3ccccc3Sc3ccc(S(=O)(=O)C(F)(F)F)cc32)CC1 (centres undefined)
93 to 95 | CCOC(=O)C(=O)N(CCOS(C)(=O)=O)N=Cc1ccccc1
175 to 179 | Cc1ccc2oc(=O)c(C(=O)Oc3cc(Cl)ccc3Cl)cc2c1
148 to 150 | COc1ccc(S(=O)(=O)Nc2cccnc2Nc2ccccc2F)cc1
196 to 198 | CC(=O)O[C@@H]1OCC[C@@H]1NC(=O)[C@H](CC(C)C)NC(=O)Nc1cccc2ccccc12
105 to 107 | COC(=O)C[C@H](O)C[C@@H](O)C=Cc1c(-c2ccc(F)cc2)c(-c2ccc(F)cc2)c(C(=O)OCc2ccccc2)n1C(C)C
240 to 244 | COc1c(N2CC[C@@H](O)[C@H](C)C2)c(F)c(N)c2c(=O)c(C(=O)O)cn(C3CC3)c12 (relative stereo)
102 to 103 | NC(=O)N1CCC(C2c3ncc(Br)cc3CCc3cc(Cl)cc(Cl)c32)CC1 (single isomer, unassigned; (+))
220 to 222 | O=C1N(Cc2ncc(F)cc2F)c2ccccc2C12COc1cc3c(cc12)OCCO3 (centres undefined)
120 to 125 | COc1ccccc1NC(=O)Nc1nc(Nc2ccccc2-c2ccccc2)nc(N(CC(=O)O)Cc2ccc(F)cc2)n1
157 to 158 | O=C1N(CCCO)c2ccccc2C12COc1cc3c(cc12)OCCO3 (centres undefined)
152 to 155 | Oc1ccccc1-c1ccccc1-c1cccc2[pH]c3ccccc3c12 (centres undefined)
56 | O=C1CCCCCCCCCCCCC1
66 | C=CC(=O)OCC(=O)OCCCCCCOC(=O)COC(=O)C=C
180 to 181 | COc1cc2ncnc(N3CCc4cc(C)ccc43)c2cc1OC
94 | O=c1cc(COC2CCCCO2)occ1O (centres undefined)
130 to 132 | CCCCc1nc2cccc(CCO)c2n1Cc1ccccc1Cl
259 to 261 | CSC(=S)NN=Cc1c[nH]cn1
112 to 114 | O=C1C(=O)c2ccccc2C2=C1SCC1(CCN(CCCc3ccccc3)CC1)O2
146 to 148 | CN(C)CCNc1ccc(NCCCCC(=O)NOCc2ccccc2)c2c1C(=O)c1ccccc1C2=O
152 | O=C(Nc1csc(-c2ccncc2)n1)Nc1cccc2c1C1CCCCN1C2=O (centres undefined)
77 to 79 | CCc1cc(CCN2C(=O)c3ccccc3C2=O)c(OC)nc1C

melting point [°C] | SMILES
210 | Cc1ccc2c(c1)C=Cc1cc(C)ccc1C2c1cn(-c2ccnc(N(C)CC(=O)Nc3nc(CC(=O)O)cs3)n2)c(=O)[nH]c1=O
226 to 228 | O=c1c2c(Cc3ccccc3)n[nH]c2c2cccnc2n1-c1cccc(C(F)(F)F)c1
146 to 148 | CCC(c1cc2c(-c3ccc(C(F)(F)F)n(C)c3=O)c(F)cc(Cl)c2o1)S(C)(=O)=O (centres undefined)
169 | Clc1ccc(-c2csc(-c3cnccc3N3CCOCC3)n2)cc1
283 to 288 | CCn1cc(C(=O)O)c(=O)c2cc(F)c(-n3ccnc3)c(F)c21
122 to 124 | O=C(CCl)N1CC(c2ccc(F)cc2)Sc2ccccc21 (centres undefined)
305 to 306 | CC(=O)Nc1ccc(Oc2c([N+](=O)[O-])cc(C(=O)O)cc2S(=O)(=O)NC(C)=O)cc1
133 to 136 | O=C1CCOc2ccc(O)cc21
112 to 114 | COC(=O)C1=C(C)NC(C)=C(C(=O)OCCCBr)C1c1cccc([N+](=O)[O-])c1 (centres undefined)
112 | CN1C(C(=O)OC2CCCCC2)=C(O)c2ccccc2S1(=O)=O
95 to 96 | COc1ccc(-c2c(Cl)ncnc2Cl)cc1
115 to 117 | CC(C)c1cc(OS(C)(=O)=O)cc(C(C)C)c1NC(=O)CN1CCN(CCSc2nc3ccccc3o2)CC1
142 to 143 | CCOC(=O)COc1cc(OC)c2c(c1[N+](=O)[O-])OC1(CCCCC1)CC2=O
160 to 162 | COc1cc(C(O)C(Cl)(Cl)Cl)cc(OC)c1O (centres undefined)
91 | COC(=O)Cc1ccc2oc(-c3ccc(OC)c(OC)c3)c(SC)c2c1
55 to 57 | COc1cc(COc2ccccc2O)cc(OC)c1
> 280 | O=C(Nc1nccs1)c1nc(-c2ccc([N+](=O)[O-])cc2)[nH]c1-c1ccc(CCl)cc1
113 to 114 | CC1(C)CCC(Cc2ccc(Cl)cc2)C1(O)COS(C)(=O)=O (centres undefined)
172 to 173 | Cc1nnc2n1-c1ccccc1NC2C (centres undefined)
101 to 103 | CN[C@@H](CC(C)C)C(=O)O
89 to 90 | CCOc1nn(Cc2ccc(OCCc3ccc(CC)cn3)cc2)cc1CCC(=O)O
145 to 146 | CCCCn1c(=O)c2c(ncn2S(=O)(=O)c2cccs2)n(CCCC)c1=O
152 to 154 | CCOc1ccc(N2CCN(c3c(C)c4c(c(OC)c3C)OC(C)(C)C4)CC2)cc1
93 to 94.5 | CC(=O)C(Cc1ccc(O)cc1)C(C)=O

melting point [°C] | SMILES
220 | Cn1cnnc1C(N)(c1ccc(Cl)cc1)c1ccc2c(c1)c(-c1cccc(Cl)c1)nc1nnnn12 (centres undefined)
118 to 120 | CCOP(=O)(OCC)C(P(=O)(OCC)OCC)S(=O)(=O)c1cc(C(C)(C)C)c(O)c(C(C)(C)C)c1
90 to 92 | CCCCCCOc1nc(N)nc2c1ncn2C1C=CC(CO)C1 (centres undefined)
102 to 103 | CCCn1c(C#N)c(Cl)n(-c2ccc(Cl)cc2)c1=O
58 to 60 | CCCCCCCCCCCCSC(=O)CS(=O)(=O)Nc1c(C(C)C)cccc1C(C)C
102 to 104 | CS(=O)(=O)c1cc([N+](=O)[O-])ccc1OC(F)(F)F
124 to 131 | COc1cc(C(C)C)ccc1C1(O)C(=O)c2ccc(N)c(NC(C)=O)c2C1=O (centres undefined)
162 to 164 | NS(=O)(=O)c1ncccc1O
120 to 121 | Cc1cc(SCc2ccc(OCc3ccccc3)cc2)ccc1OCC(=O)O
122 to 124 | CCOC(=O)NNC(=O)Cc1noc(C)n1
100 to 102 | Cc1cc(C)c(C(C#N)c2nc(C)nc(Cl)c2C)c(C)c1 (centres undefined)
182 to 184 | CCC(=S)NC[C@H]1CN(c2ccc(N3CCN(C#N)CC3)c(F)c2)C(=O)O1
145 to 148 | O=C(O)C(=O)c1cnsc1
255 to 257 | CCOC(=O)c1cn2c3c(c(F)c(F)c(N)c3c1=O)CCN2C
127 to 128 | COC(=O)c1ccc(OCCCN2C(=O)c3ccccc3C2=O)c(OC)c1
179 to 180 | CC(=O)N[C@@H](C)COc1ccc(-c2nc3ccc(OCC4CC4)cc3o2)nc1
252 to 255 | O=C(Nc1ccc(CN2C(=O)[C@H]3CCC[C@H]3N(C(=O)CN3C(=O)c4ccccc4C3=O)c3ccccc32)cc1)c1ccccc1 (relative stereo)
178 to 180 | C=C(C)CN(CC)c1nc(N2CCN(C(=O)NC(c3ccccc3)c3ccccc3)CC2)nc(N(CC)CC(=C)C)n1
141 to 146 | CC(C)Nc1nc(Cl)nc(NCCS)n1
134 to 135 | O=S(=O)(c1ccccc1)c1cc(Br)nc(Br)c1
175 to 177 | N#Cc1cccc2c1CC(=NN)c1ccccc1S2

SMILES | melting point [°C]
Cc1ccc(S(=O)(=O)N2CC2CCOS(C)(=O)=O)cc1 (centres undefined) | 78 to 80
Nc1cccc(-c2ccc(CCN3CCN(C(=O)Cc4ccc(Cl)cc4)CC3)cc2)n1 | 205
OC(CN1CC=C(c2c[nH]c3ccccc23)CC1)C1COc2ccccc2O1 (centres undefined) | 177
NCCc1c[nH]c2ccc(NC(=O)Nc3ccccc3)cc12 | 192 to 194
O=P(O)(O)C(O)C(O)P(=O)(O)O (centres undefined) | 209 to 211
O=C(O)c1cc2nc(C(F)(F)F)ccc2n1Cc1cccc(F)c1 | 254 to 255
